pIC50: −log10 of the molar value.
Legend:
[1] = target: T1, Full length Human HDAC8 (Homo sapiens, UniProt Q9BY41); assay: Caliper endpoint assay for HDAC enzymatic activity (HDAC8); type: biochemical; details: in vitro enzymatic, 30 min pre-incubation, 1 μM substrate peptide
T1 construct: Full length Human HDAC8; HIS (N); host or cells: baculovirus expression system
T1 sequence (Q9BY41 1-377): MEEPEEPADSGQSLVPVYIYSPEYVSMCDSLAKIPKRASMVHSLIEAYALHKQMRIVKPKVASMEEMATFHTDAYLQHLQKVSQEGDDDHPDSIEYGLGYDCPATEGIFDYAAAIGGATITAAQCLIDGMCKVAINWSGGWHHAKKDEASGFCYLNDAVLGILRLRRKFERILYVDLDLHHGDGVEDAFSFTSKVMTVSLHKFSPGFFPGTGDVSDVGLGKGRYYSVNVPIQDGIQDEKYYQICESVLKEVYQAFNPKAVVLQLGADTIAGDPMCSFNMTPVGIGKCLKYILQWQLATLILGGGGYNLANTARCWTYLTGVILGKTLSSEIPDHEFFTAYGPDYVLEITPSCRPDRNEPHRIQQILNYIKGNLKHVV

[2] = target: T2, Full length Human HDAC6 (Homo sapiens, UniProt Q9UBN7); assay: Caliper endpoint assay for HDAC enzymatic activity (HDAC6); type: biochemical; details: for pIC50: in vitro enzymatic, Caliper endpoint assay, 30 min pre-incubation, 1 μM substrate peptide; for Selectivity (6 v 8): ratio of HDAC8 IC50/HDAC6 IC50
T2 construct: Full length Human HDAC6; FLAG (C); host or cells: baculovirus expression system
T2 sequence (Q9UBN7 1-1215): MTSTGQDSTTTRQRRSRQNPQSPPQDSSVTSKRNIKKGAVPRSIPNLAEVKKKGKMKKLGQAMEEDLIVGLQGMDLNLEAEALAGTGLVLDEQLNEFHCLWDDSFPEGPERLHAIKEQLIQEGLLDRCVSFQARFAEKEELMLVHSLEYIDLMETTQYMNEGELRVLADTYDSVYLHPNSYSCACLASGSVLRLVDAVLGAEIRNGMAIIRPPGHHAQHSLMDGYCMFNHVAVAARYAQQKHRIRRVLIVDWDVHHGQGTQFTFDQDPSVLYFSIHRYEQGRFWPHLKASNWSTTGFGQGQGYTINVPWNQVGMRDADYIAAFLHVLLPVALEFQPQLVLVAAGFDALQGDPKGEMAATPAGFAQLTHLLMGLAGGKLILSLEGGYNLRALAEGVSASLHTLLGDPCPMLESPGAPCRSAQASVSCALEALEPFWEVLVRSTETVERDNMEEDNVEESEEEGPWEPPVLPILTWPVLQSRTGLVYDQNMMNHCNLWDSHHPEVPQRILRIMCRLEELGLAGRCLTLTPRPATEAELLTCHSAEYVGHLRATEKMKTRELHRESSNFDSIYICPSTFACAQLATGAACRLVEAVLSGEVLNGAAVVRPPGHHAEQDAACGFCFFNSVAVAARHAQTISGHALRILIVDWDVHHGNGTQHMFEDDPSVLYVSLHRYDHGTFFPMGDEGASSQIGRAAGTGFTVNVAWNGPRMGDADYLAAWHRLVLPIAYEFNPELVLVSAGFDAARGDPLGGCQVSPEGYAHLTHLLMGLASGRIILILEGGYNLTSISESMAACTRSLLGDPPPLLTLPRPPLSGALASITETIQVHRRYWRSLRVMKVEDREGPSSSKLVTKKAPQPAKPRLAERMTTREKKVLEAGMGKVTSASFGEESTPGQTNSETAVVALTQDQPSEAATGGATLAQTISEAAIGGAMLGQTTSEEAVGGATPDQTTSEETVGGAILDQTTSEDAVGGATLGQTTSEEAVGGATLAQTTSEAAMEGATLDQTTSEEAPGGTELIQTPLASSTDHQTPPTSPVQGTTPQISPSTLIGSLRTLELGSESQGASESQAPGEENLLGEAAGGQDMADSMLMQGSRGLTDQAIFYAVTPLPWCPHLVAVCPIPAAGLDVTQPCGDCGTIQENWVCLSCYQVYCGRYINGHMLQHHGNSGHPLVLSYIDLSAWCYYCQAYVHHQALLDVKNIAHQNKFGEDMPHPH

| SMILES | pIC50 [1] | pIC50 [2] | Selectivity (6 v 8) [2] |
| --- | --- | --- | --- |
| CN1C[C@@]2(CN3CCc4cc(C(=O)NO)cc(F)c4C3)C[C@@H]1CO2 [Compound 474, 8-fluoro-2-[[(1S,4R)-5-methyl-2-oxa-5-azabicyclo[2.2.1]heptan-1-yl]methyl]-3,4-dihydro-1H-isoquinoline-6-carbohydroxamic acid] | 5.00 to 6.00 | 7.00 to 9.00 | IV (IV: >100-1000) |
| CN1C[C@]2(CN3CCc4cc(C(=O)NO)cc(F)c4C3)C[C@H]1CO2 [Compound 475, 8-fluoro-2-[[(1R,4S)-5-methyl-2-oxa-5-azabicyclo[2.2.1]heptan-1-yl]methyl]-3,4-dihydro-1H-isoquinoline-6-carbohydroxamic acid] | 4.00 to 5.00 | 7.00 to 9.00 | IV (IV: >100-1000) |
| O=C(NO)c1cc(F)c2c(c1)CCN(CC1CC3CCC(C1)N3C1CC1)C2 (stereo not drawn) [Compound 484, 2-[(8-cyclopropyl-8-azabicyclo[3.2.1]octan-3-yl)methyl]-8-fluoro-3,4-dihydro-1H-isoquinoline-6-carbohydroxamic acid] | 5.00 to 6.00 | 7.00 to 9.00 | IV (IV: >100-1000) |
| NC12CC(CN3CCc4cc(C(=O)NO)cc(F)c4C3)(C1)C2 [Compound 486, 2-[(3-amino-1-bicyclo[1.1.1]pentanyl)methyl]-8-fluoro-3,4-dihydro-1H-isoquinoline-6-carbohydroxamic acid] | 4.00 to 5.00 | 7.00 to 9.00 | IV (IV: >100-1000) |
| CNC12CC(CN3CCc4cc(C(=O)NO)cc(F)c4C3)(C1)C2 [Compound 487, 8-fluoro-2-[[3-(methylamino)-1-bicyclo[1.1.1]pentanyl]methyl]-3,4-dihydro-1H-isoquinoline-6-carbohydroxamic acid] | 5.00 to 6.00 | 7.00 to 9.00 | IV (IV: >100-1000) |
| CN1CC2(CN3CCc4cc(C(=O)NO)cc(F)c4C3)CC1C2 [Compound 490, 8-fluoro-2-[(2-methyl-2-azabicyclo[2.1.1]hexan-4-yl)methyl]-3,4-dihydro-1H-isoquinoline-6-carbohydroxamic acid] | 5.00 to 6.00 | 7.00 to 9.00 | IV (IV: >100-1000) |
| O=C(NO)c1cc(F)c2c(c1)CCN(CC13CC(C1)N(C1CC1)C3)C2 [Compound 491, 2-[(2-cyclopropyl-2-azabicyclo[2.1.1]hexan-4-yl)methyl]-8-fluoro-3,4-dihydro-1H-isoquinoline-6-carbohydroxamic acid] | 4.00 to 5.00 | 7.00 to 9.00 | IV (IV: >100-1000) |
| O=C(NO)c1cc(F)c2c(c1)CCN(CC1C3CNCC1C3)C2 (stereo not drawn) [Compound 493] | 4.00 to 5.00 | 7.00 to 9.00 | IV (IV: >100-1000) |
| O=C(NO)c1cc(F)c2c(c1)CCN(CC1C3CC1CN(C1CC1)C3)C2 (stereo not drawn) [Compound 494, 2-[(3-cyclopropyl-3-azabicyclo[3.1.1]heptan-6-yl)methyl]-8-fluoro-3,4-dihydro-1H-isoquinoline-6-carbohydroxamic acid] | 5.00 to 6.00 | 7.00 to 9.00 | III (III: >10-100) |

Further lines, results first:

| pIC50 [1] | pIC50 [2] | Selectivity (6 v 8) [2] | SMILES |
| --- | --- | --- | --- |
| 4.00 to 5.00 | 6.00 to 7.00 | IV (IV: >100-1000) | [2H]c1cc2c(cc1C(=O)NO)CCN(C1CC3(CCCCC3)C1)C2 [Compound 504, N-hydroxy-2-(spiro[3.5]nonan-2-yl)-1,2,3,4-tetrahydroisoquinoline-7-d-6-carboxamide] |
| 4.00 to 5.00 | 7.00 to 9.00 | IV (IV: >100-1000) | [2H]c1c(C(=O)NO)ccc2c1CCN(C1CC3(CCCCC3)C1)C2 [Compound 505, N-hydroxy-2-(spiro[3.5]nonan-2-yl)-1,2,3,4-tetrahydroisoquinoline-5-d-6-carboxamide] |
| 4.00 to 5.00 | < 4.00 | V (V: >1000) | O=C(NO)c1ccc2c(c1F)CCN(C1CC3(CCCCC3)C1)C2 [Compound 506, 5-fluoro-N-hydroxy-2-(spiro[3.5]nonan-2-yl)-1,2,3,4-tetrahydroisoquinoline-6-carboxamide] |
| 4.00 to 5.00 | 7.00 to 9.00 | IV (IV: >100-1000) | O=C(NO)c1cc(F)c2c(c1)CCN(C1CC3(CCN(C4CC4)CC3)C1)C2 [Compound 607, 2-(7-cyclopropyl-7-azaspiro[3.5]nonan-2-yl)-8-fluoro-3,4-dihydro-1H-isoquinoline-6-carbohydroxamic acid] |

Reference: US12655106B2 (Eikonizo Therapeutics, Inc., priority 2021, dated 2026)
